# Where a name gives a salt, the structure may show the parent alone.
# Target: T1, Golgi α-mannosidase II (Canavalia ensiformis, UniProt C0HJB3)
# T1 sequence (C0HJB3 1-981): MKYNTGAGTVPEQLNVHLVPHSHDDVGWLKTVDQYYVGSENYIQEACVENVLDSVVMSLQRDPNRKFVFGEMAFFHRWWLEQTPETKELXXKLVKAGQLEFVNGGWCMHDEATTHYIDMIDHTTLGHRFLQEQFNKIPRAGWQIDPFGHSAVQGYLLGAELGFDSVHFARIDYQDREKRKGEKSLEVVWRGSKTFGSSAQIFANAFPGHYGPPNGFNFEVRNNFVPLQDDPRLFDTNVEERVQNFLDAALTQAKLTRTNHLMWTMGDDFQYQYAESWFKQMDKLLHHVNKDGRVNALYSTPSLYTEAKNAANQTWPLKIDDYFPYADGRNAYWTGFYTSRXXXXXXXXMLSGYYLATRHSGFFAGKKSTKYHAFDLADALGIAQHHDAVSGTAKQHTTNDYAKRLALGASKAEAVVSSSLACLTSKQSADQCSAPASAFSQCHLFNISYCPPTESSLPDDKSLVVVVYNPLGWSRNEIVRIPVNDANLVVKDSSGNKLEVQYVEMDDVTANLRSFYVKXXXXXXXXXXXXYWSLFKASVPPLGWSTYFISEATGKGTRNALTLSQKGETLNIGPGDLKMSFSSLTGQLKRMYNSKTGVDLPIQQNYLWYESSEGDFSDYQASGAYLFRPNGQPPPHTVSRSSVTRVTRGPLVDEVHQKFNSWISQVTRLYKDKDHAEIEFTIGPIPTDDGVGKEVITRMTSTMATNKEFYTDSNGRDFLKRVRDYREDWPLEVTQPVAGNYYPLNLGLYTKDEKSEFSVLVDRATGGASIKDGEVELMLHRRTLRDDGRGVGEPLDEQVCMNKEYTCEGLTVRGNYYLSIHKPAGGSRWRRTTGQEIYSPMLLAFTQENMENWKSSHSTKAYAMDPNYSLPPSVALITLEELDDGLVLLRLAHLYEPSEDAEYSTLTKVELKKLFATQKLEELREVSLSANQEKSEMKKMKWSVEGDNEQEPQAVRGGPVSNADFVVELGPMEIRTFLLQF
# Assay: not given
# Assay type: biochemical
# Settings: sodium acetate pH 5.6, 60 min at 37° C., p-nitrophenol read at 405
# Protocol: (§1) 15 μl of α-mannosidase (Sigma 38 U/ml) was added to each well and the plates were incubated for 60 min at 37° C. The reaction was stopped by the addition of 50 μl of 0.5M sodium carbonate and formation of p-nitrophenol was measured with a plate set at […]. […] The reaction was stopped by the addition of 50 μl of 0.5M sodium carbonate and formation of p nitrophenol was measured with a plate set at 405.
row,Structure (SMILES),MannoaidaseII Activity (μM)
1,"OC1=C(O)N2CCC[C@@H](O)[C@H]2[C@@H]1O [(1S,8R,8aS)-1,5,6,7,8,8a-Hexahydro-1,2,3,8-indolizinetetraol]",No detectable

# Same assay, conditions: sodium acetate pH 5.6, 60 min at 37° C., p-nitrophenol read at 405; read-out: MannoaidaseII Activity
row,Structure (SMILES),IC50
1,"O=C1[C@H](O)[C@@H](O)[C@@H]2[C@H](O)CCCN12 [GD 35, (1S,2R,8R,8aS)-1,2,8-Trihydroxyhexahydo-3(2II)-indolizinone]",1030 µM
2,"OCC1C(O)C(O)C2C(O)CCCN12 (stereo not shown) [EJH-4-263, 3-hydroxymethyl-swainsonine]",1.83 ± 1.3 µM

# Tested on: MDAY-D2 tumor cells
# Assay: not given
# Settings: viable MDAY-D2 tumor cells; cited from earlier work
row,Structure (SMILES),activity as inhibitors of Golgi oligosaccharide processing
1,O=C(OC1CN2CCCC(O)C2C1O)c1ccc([N+](=O)[O-])cc1 (stereo not shown) [2-p-nitrobenzoyloxy],retained full activity
2,CCCC(=O)OC1CN2CCCC(O)C2C1O (stereo not shown) [2-butanoyloxy],retained full activity
3,CCCCCCCC(=O)OC1CN2CCCC(O)C2C1O (stereo not shown) [2-octanoyloxy],retained full activity

# Target: T2, lysosomal mannosidase (Homo sapiens, UniProt O00754)
# T2 sequence (O00754 50-1011): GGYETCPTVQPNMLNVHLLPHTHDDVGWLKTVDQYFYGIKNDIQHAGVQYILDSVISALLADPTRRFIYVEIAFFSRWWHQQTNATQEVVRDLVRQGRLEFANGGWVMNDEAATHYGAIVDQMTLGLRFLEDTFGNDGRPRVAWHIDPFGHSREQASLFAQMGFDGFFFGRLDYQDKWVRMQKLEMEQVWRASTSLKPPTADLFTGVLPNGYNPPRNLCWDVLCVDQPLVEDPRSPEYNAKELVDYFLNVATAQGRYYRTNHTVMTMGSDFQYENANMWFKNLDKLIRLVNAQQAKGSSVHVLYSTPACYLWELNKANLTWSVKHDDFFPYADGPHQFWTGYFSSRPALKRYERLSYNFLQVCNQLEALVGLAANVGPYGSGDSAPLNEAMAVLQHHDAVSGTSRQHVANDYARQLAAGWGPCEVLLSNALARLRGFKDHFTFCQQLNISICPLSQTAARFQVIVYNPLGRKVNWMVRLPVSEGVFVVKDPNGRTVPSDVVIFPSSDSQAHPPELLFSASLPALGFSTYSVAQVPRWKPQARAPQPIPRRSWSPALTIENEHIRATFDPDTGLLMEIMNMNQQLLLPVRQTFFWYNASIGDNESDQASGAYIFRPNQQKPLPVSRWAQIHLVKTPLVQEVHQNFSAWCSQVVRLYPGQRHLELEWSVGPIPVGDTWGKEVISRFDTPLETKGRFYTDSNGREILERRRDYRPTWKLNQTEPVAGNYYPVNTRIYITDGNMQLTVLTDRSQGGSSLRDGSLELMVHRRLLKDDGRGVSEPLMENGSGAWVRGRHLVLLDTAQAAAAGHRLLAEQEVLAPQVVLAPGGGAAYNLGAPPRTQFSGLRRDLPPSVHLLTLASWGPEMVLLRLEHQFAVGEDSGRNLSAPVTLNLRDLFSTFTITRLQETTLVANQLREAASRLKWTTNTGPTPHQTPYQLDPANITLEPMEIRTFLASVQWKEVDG
# Assay: biochemical
# Settings: Lysosomal Mannosidase Activity (μM)
# Protocol: as §1
row,Structure (SMILES),IC50
1,"O[C@H]1[C@H]2[C@H](O)CCCN2C[C@H]1O [Swainsonine, reference compound]",0.08 ± 0.079 µM

# Same assay, conditions: sodium acetate pH 5.0, 60 min at 37° C., p-nitrophenol read at 405
row,Structure (SMILES),Lysosomal Mannosidase Activity (μM)
1,"OC1=C(O)N2CCC[C@@H](O)[C@H]2[C@@H]1O [(1S,8R,8aS)-1,5,6,7,8,8a-Hexahydro-1,2,3,8-indolizinetetraol]",No detectable inhibition

# Same assay, conditions: sodium acetate pH 5.0, 60 min at 37° C., p-nitrophenol read at 405; read-out: Lysosomal Mannosidase Activity
row,Structure (SMILES),IC50
1,"O=C1[C@H](O)[C@@H](O)[C@@H]2[C@H](O)CCCN12 [GD 35, (1S,2R,8R,8aS)-1,2,8-Trihydroxyhexahydo-3(2II)-indolizinone]",1090 µM
2,"OC[C@H]1CC[C@@H](O)[C@@H]2[C@H](O)[C@H](O)CN12 [GD45, (5R)-5-(Hydroxymethyl)swainsonine]",0.705 ± 0.309 µM
3,"CC1CCC(O)C2C(O)C(O)CN12 (single isomer, unassigned) [GD 20]",2.3 ± 1.13 µM
4,"OC1CN2C(COCc3ccccc3)CCC(O)C2C1O (single isomer, unassigned) [GD 91]",3.23 ± 0.268 µM
5,"OCC1C(O)C(O)C2C(O)CCCN12 (stereo not shown) [EJH-4-264, 3-hydroxymethyl-swainsonine]",1.7 ± 0.5 µM
6,"OC[C@@H]1CC[C@@H](O)[C@@H]2[C@H](O)[C@H](O)CN12 [GD 46, (5S)-5-(Hydroxymethyl)swainsonine]",1.48 ± 0.455 µM
7,"N#CC1C(O)[C@@H](O)C2[C@H](O)CCCN12 (stereo in doubt) [GD 92, (1S, 2S, 3R/S, 8R, 8aS)-3-cyano-1,2,8-Trihydroxyoctahydroindolizine]",30.1 ± 1.2 µM
8,"CC1CCC(O)C2C(O)C(O)CN12 [GD19, (5R)-5-Methylswainsonine formate salt]",1.45 ± 0.071 µM
9,"CC1CCC(O)C2C(O)C(O)CN12 (single isomer, unassigned) [GD37]",28.2 ± 7.85 µM
10,"C[C@@H]1[C@H](CO)C[C@@H](O)[C@@H]2[C@H](O)[C@H](O)CN21 [GD44, (5R,6R)-6-Hydroxymethyl-5-methylswainsonine]",24.5 ± 7.62 µM
11,"CCOC(=O)C1CC(O)C2C(O)C(O)CN2C1C [GD84, ethyl (5R,6R)-5-methylswainsonine-6-carboxylate]",1500 ± 707 µM
12,"OCC1C(O)C(O)C2C(O)CCCN12 (stereo not shown) [EJH-4-263, 3-hydroxymethyl-swainsonine]",39.1 ± 16.3 µM
13,"CCOC(=O)[C@H]1C[C@H](O)[C@@H]2[C@@H](O)[C@H](O)CN2[C@H]1C [GD 36, ethyl (1R,2R,5S,6S,8S,8aR)-1,2,8-trihydroxy-5-methyloctahydro-6-indolizinecarboxylate]",120 ± 32.2 µM
14,"OC1CN2C(COCc3ccccc3)CCC(O)C2C1O (single isomer, unassigned) [GD42]",0.164 ± 0.0491 µM
15,"CC1CCC(O)C2C(O)C(O)CN12 (single isomer, unassigned) [GD 28]",0.316 ± 0.0759 µM
16,"C[C@H]1[C@@H](CO)C[C@@H](O)[C@@H]2[C@H](O)[C@H](O)CN21 [GD40, (5S,6S)-6-Hydroxymethyl-5-methylswainsonine]",62.4 ± 17.9 µM
17,"CC[C@H]1CC[C@@H](O)[C@@H]2[C@H](O)[C@H](O)CN12 [GD 38, (5S)-5-Ethylswainsonine]",0.36 ± 0.313 µM

# Reference: patent US20030236229A1 (priority 1996, published 2003)
